The results in this text go back to PMC6487263, “Kinetic and structural analysis of human ALDH9A1” (Bioscience Reports, 2019).

The target in assay [1] is T1, human ALDH9A1 (HsALDH9A1) (Homo sapiens, UniProt P49189).
T1 construct: full-length 494-residue protein, His-tag kept (pCDFDuet, BamHI/XhoI), recombinant from E. coli; silent polymorphism at Ile110 codon
Briefly: microscale thermophoresis, RED-tris-NTA labelled His-tagged enzyme. The class given is binding. From the text:
microscale thermophoresis, RED-tris-NTA labelled His-tagged enzyme on human ALDH9A1 (HsALDH9A1)
Background: MST reads how a fluorescent partner responds to local heating, with and without ligand.

The target of assay [2] is T1, human ALDH9A1 (HsALDH9A1). Briefly: NADH formation at […] nm, partial substrate inhibition fit. The class given is biochemical. The note with it: substrate inhibition constant; 1 mM NAD+, 150 mM sodium pyrophosphate pH 7.5, 30 °C.
Assay [3] concerns the target T1, human ALDH9A1 (HsALDH9A1). Description: nanoDSF (Tycho NT.[…]). The settings on record: 150 mM Tris/HCl pH 7.5, apoenzyme reference 69.5 °C. The class given is binding.
Assay [4] has as its target T1, human ALDH9A1 (HsALDH9A1). Briefly: microscale thermophoresis. The assay is classed as binding.

T1 sequence (P49189 whole entry): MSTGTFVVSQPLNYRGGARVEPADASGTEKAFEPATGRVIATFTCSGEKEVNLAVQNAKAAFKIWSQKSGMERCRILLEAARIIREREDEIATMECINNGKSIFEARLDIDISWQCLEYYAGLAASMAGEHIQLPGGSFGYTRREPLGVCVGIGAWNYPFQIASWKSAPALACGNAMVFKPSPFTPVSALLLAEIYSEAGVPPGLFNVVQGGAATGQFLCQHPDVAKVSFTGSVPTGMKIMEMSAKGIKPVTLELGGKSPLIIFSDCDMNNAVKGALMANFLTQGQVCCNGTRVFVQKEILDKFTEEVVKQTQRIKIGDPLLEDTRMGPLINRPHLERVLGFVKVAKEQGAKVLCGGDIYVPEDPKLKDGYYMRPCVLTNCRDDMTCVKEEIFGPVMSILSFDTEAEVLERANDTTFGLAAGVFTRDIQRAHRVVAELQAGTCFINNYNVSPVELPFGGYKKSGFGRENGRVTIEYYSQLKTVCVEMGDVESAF

In turn, `C[N+](C)(C)CC=O` [BAL] yielded a Kd in assay [1] of 171 ± 35 µM. Take `CN(C)CCCC=O` [DMABAL]: the “Ki” value in assay [2] was 10880 ± 1350 µM. With `N=C(N)NCCCC=O` [GBAL], the “Ki” value in assay [2] was 7230 ± 1650 µM. Molecule `NC(=O)c1ccc[n+]([C@@H]2O[C@H](COP(=O)([O-])OP(=O)(O)OC[C@H]3O[C@@H](n4cnc5c(N)ncnc54)[C@H](O)[C@@H]3O)[C@@H](O)[C@H]2O)c1` [NAD^+] had a Kd in assay [1] of 16 ± 3 µM. Also, the Tm in assay [3] (5 mM ligand) was 69.5 °C. For the molecule `C[N+](C)(C)CCCC=O` [TMABAL, 4-(trimethylamino)butyraldehyde], binding in assay [1] was put at a Kd of 6 ± 3 µM. Besides, in assay [2], the “Ki” value was 2200 ± 590 µM. For the same molecule, the Tm in assay [3] (5 mM ligand) turned out to be 63 °C. As for `C[N+](C)(C)CCCC(=O)[O-]` [TMABA], the melting temperature (Tm) in assay [3] (10 mM ligand) was determined as 66 °C. This molecule also returned a dissociation constant (Kd) in assay [4] of 2600 ± 200 µM. Take `C[N+](C)(C)CCC=O` [TMAPAL, 3-(trimethylamino)propionaldehyde]: the “Ki” value in assay [2] is given as 470 ± 45 µM.

The Kd is the free concentration of one partner at which half of the binding sites on the other are occupied at equilibrium, for simple one-to-one binding. Read a high Kd as lower affinity. What is called Tm is the temperature at which the thermal transition is half complete.
